Measured values from PubChem BioAssay (NCI).
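Step 1: Grow cells in 96-well plates. Step 2: Expose to compound for 48 hours at 5 concentrations. Step 3: Interpolate endpoints linearly; if unreached, use highest concentration. Definition used: TGI = concentration required for complete inhibition of growth.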

Experiments:
Assay in all cases: NCI tumour cell line growth inhibition, 48 h
U251 CNS = tested on: U251 CNS
TK-10 renal = tested on: TK-10 renal
ACHN renal = tested on: ACHN renal
UACC-62 melanoma = tested on: UACC-62 melanoma
UACC-257 melanoma = tested on: UACC-257 melanoma
UO-31 renal = tested on: UO-31 renal
SF-539 CNS = tested on: SF-539 CNS
K-562 leukemia = tested on: K-562 leukemia
HCT-116 colon = tested on: HCT-116 colon
KM12 colon = tested on: KM12 colon

Row | Compound | TGI (U251 CNS) [µM] | TGI (TK-10 renal) [µM] | TGI (ACHN renal) [µM] | TGI (UACC-62 melanoma) [µM] | TGI (UACC-257 melanoma) [µM] | TGI (UO-31 renal) [µM] | TGI (SF-539 CNS) [µM] | TGI (K-562 leukemia) [µM] | TGI (HCT-116 colon) [µM] | TGI (KM12 colon) [µM]
1 | O=NN1CCCS1(=O)=O | > 100 | > 100 | > 100 | > 100 | > 100 | > 100 | > 100 | > 100 | > 100 | > 100
2 | Cn1c(=O)n(CC2CS2)c2ccccc21 (stereo not given) | – | > 100 | > 100 | > 100 | – | > 100 | > 100 | > 100 | > 100 | > 100
3 | O=C1c2ccccc2C(=O)c2nn(N=P(CP(=Nn3nc4c(n3)C(=O)c3ccccc3C4=O)(c3ccccc3)c3ccccc3)(c3ccccc3)c3ccccc3)nc21 | > 100 | > 100 | > 100 | > 100 | > 100 | – | > 100 | > 100 | > 100 | > 100
4 | Nn1c(Sc2nc3ccccc3c(=O)n2N)nc2ccccc2c1=O | 20 | 42.2 | 26.4 | 25.6 | 38.1 | 3.26 | 6.24 | > 100 | 12.6 | > 62.3
5 | O=c1oc2cccnc2n1CCCCN1CCN(c2ccccc2)CC1 | > 100 | > 100 | > 100 | – | > 100 | > 100 | > 100 | > 100 | > 100 | –
6 | COc1cc2c(cc1O)CCN(C)[C@H]2Cc1ccc(Oc2c(O)c(OC)cc3c2C[C@H]2c4c(c(OC)c(OC)c(OC)c4-3)CCN2C)cc1 | 9.05 | 11.3 | 10.7 | 9.44 | 13.4 | 9.77 | 11.5 | 3.33 | 7.98 | 8.89
7 | NC1c2c(Cl)sc(Cl)c2C(=O)C1O (stereo not given) | 60 | > 100 | 99.6 | 43.7 | > 100 | > 100 | > 100 | > 100 | > 100 | > 100
8 | COC(=O)/C=c1/c2ccccc2n2c1c1ccccc1[n+]2C | 19.4 | 9.93 | 14.7 | 27.5 | 8.08 | 20.4 | 14 | > 100 | 10.1 | 9.47
9 | Cc1ccc(NC2=N/C(=C/c3ccco3)C(Cl)=N2)cc1 | > 100 | > 100 | > 100 | > 100 | > 100 | > 100 | > 100 | > 100 | > 100 | > 100
10 | NC(=S)N/N=C1\CCCC1C(O)(C(F)(F)Cl)C(F)(F)Cl (stereo not given) | > 10 | > 10 | > 10 | > 10 | > 10 | – | > 10 | > 10 | > 10 | > 10
11 | CCN(CC)C1Oc2cc3c(cc2C(c2cc(OC)c(OC)c(OC)c2)C1C)OCO3 (stereo not given) | 6.89 | > 72.1 | > 38.7 | 98.5 | > 100 | > 46.7 | 1.43 | 11.1 | 13.4 | 30.7
12 | O=c1[nH]c2cc([N+](=O)[O-])c(Nc3c4ccccc4nc4ccccc34)c([N+](=O)[O-])c2[nH]1 | 22.6 | 6.85 | 16.7 | 4.53 | 11.2 | 5.98 | 13.7 | 6.96 | 7.39 | 10.9
13 | COc1cc2oc(-c3ccc4c(c3)OCO4)c(OC)c(=O)c2c(O)c1OC | > 50 | > 50 | > 50 | > 50 | > 50 | > 50 | > 50 | > 50 | > 50 | > 50
14 | C=CC(OC(C)=O)c1ccc(OC(C)=O)cc1 (stereo not given) | 5.65 | 4.99 | 6.26 | 28.1 | 16 | 4.25 | 4.78 | > 100 | 19.4 | 18.6
15 | Cn1c2ccc(C3=NCCN3)cc2c2cc(C3=NCCN3)ccc21 | > 100 | > 100 | > 100 | – | > 100 | > 100 | > 100 | > 100 | > 100 | > 100
16 | COc1cc2oc(=O)cc(C)c2cc1OC | > 100 | > 100 | > 100 | > 100 | > 100 | > 100 | > 100 | > 100 | > 100 | > 100
17 | N#C/C(C(=O)Nc1ccccc1)=C(/N)N1CCCCC1 | > 100 | – | > 100 | > 100 | > 100 | > 100 | > 100 | > 100 | > 100 | > 100
18 | NNC(=O)Cn1ccnn1 | > 100 | > 100 | > 100 | – | > 100 | – | – | > 100 | – | > 100
19 | CCOC(=O)CCC(NC(=O)OCc1ccccc1)C(=O)NC(CCC(=O)OCC)C(=O)NC(CCC(=O)OCC)C(=O)NNC(=O)OC(C)(C)C (stereo not given) | > 100 | > 100 | > 100 | > 100 | > 100 | > 100 | – | > 100 | > 100 | –
20 | CC1CN=C(c2ccc(-c3nc(-c4ccc(C5=NCC(C)N5)cc4)nc(N(C)C)n3)cc2)N1 (stereo not given) | 2.35 | 11.5 | 11.5 | 3.41 | 8.76 | 19.9 | 2.2 | 6 | 3.16 | 8.96
21 | CC(C)(Cc1ccccc1)N1C(=O)N1C(C)(C)Cc1ccccc1 | > 100 | > 100 | – | > 100 | > 100 | > 100 | > 100 | > 100 | > 100 | > 100
22 | N#Cc1c(N2CCN(c3ccc([N+](=O)[O-])cc3)CC2)[n+](=O)c2ccc(-c3ccc([N+](=O)[O-])cc3)cc2n1[O-] | > 41 | > 100 | > 100 | > 100 | > 100 | > 100 | > 100 | > 100 | > 100 | > 100
